Experimental data: paper PMC9094701, “Multiple-Allele MHC Class II Epitope Engineering by a Molecular Dynamics-Based Evolution Protocol” (Frontiers in Immunology, 2022)

system: MHC II alleles DRB1*01:01, DRB1*03:01, DRB1*04:01 and DRB1*15:01; test: Multiple-allele REVEAL score; assay type: binding, human; settings: average of the scores of each allele; Figure 4A
Procedure: The 18 designed candidates and the additional controls were synthesized and analysed using the ProImmune REVEAL® MHC-peptide binding assay to determine their level of binding to the MHC II alleles DRB1*01:01, DRB1*03:01, DRB1*04:01 and DRB1*15:01. A multiple-allele score was measured to evaluate if the peptides improved toward multiple alleles ( Figure 4A ). Of the 18 peptides, the peptide […] could not be synthesized by the Prospector PEPscreen® technology. […] None of the peptides, including the controls, were able to trigger a signal for the allele DRB1*03:01 (see Figure 4A ). […]
A gold-standard method of rate binding experiments against the MHC II alleles was performed with the Proimmune REVEAL® binding assay. The method uses antibody-labelled peptides that emit a signal if native conformations of the complexes are detected. […]
For the single-allele binding optimization phase, 17 peptides selected were assayed together with the controls against the DRB1*01:01 allele. For the multiple-allele engineering phase, 18 P. vivax engineered epitopes were evaluated for the MHC II alleles DRB1*01:01, DRB1*03:01, DRB1*04:01 and DRB1*15:01. A multiple-allele score was calculated by averaging the scores of each allele, and by weighting each allele based on the their frequencies in the world population. […]

For DYTVVYLKPLAGYDH, the “Multiple-allele REVEAL score, in words” value was “superior to the PADRE epitope”.

target: MHC II (HLA) allele DRB1*01:01 (Homo sapiens, UniProt P01903+P01911, A100R/D57E/F55L/F60I/F76Y/I96L/L162R/M171V/P40L/Q125E/R42F/V115G/Y59C); test: ProImmune REVEAL MHC-peptide binding assay; settings: score 0-100 by comparison with a control T-cell epitope, 0 and 24 hours, Figure 2E

For YSKYKKQNTLKAAT, the “REVEAL binding score, performance in words” value was “much superior to the original peptide sequence, and even to the PADRE control”.

system: IFNγ-producing cells; test: IFNγ ELISpot of splenocytes from immunized mice; assay type: in vivo, C57BL/6 mice; settings: C57BL/6 mice, two s.c. doses of 50 μg peptide with AddaVax; splenocytes 15 days after last dose, restimulated with the same peptide 18 h; ELISpot; mean

Compared with VYDVVYLKPLAGCYK, DYTVVYLKPLAGYDH is lower in “specific IFNγ-producing cells” value: 145 SFU/10^6 cells for the first, 127 SFU/10^6 cells for the second.

Compared with DYDVVYLKPLAGMYK [reference compound], YSKYKKQNTLKAAT is higher in “specific IFNγ-producing cells” value: 295 SFU/10^6 cells for the first, 473 SFU/10^6 cells for the second.

Compared with “YPKYVKQNTLKLAT [Influenza A virus peptide from the Hemagglutinin antigen, reference compound]”, DYDVVYWKPLAGIYK is lower in “specific IFNγ-producing cells” value: 463 SFU/10^6 cells for the first, 228 SFU/10^6 cells for the second.

For DYTVVYLKPLAGYDN, the “specific IFNγ-producing cells” value was 54 SFU/10^6 cells.

same assay, conditions: rank from the ex vivo experiments, Influenza sequences and PADRE, Table S11

Compared with YSKYKKQNTLKAAT, “YPKYVKQNTLKLAT [Influenza A virus peptide from the Hemagglutinin antigen, reference compound]” is higher in Experimental rank: 2 for the first, 3 for the second.

With AKFVAAWTLKAAA [reference compound] the Experimental rank was 1.

same assay, conditions: rank from the ex vivo experiments, P. vivax sequences, Table S10

Going from VYDVVYLKPLAGCYK to DYTVVYLKPLAGYDH, the Experimental rank rises from 3 to 4.

Going from DYDVVYLKPLAGMYK [reference compound] to DYDVVYWKPLAGIYK, the Experimental rank rises from 1 to 2.

Sequence DYTVVYLKPLAGYDN has an Experimental rank of 5.
